According to patent US4401660A, “Ester derivatives of 5-O-mycaminosyl tylonolide and method of using same” (Eli Lilly and Company, priority 1981, dated 1983):
Read-outs that look alike come from different tables or passages of the source.

How the values were obtained:
Pasteurella multocida = assay: Treatment of Pasteurella infections in chicks (Table V); type: in vivo, one-day-old chicks; conditions: Pasteurella multocida, sc, 4 h; 30 mg/kg by subcutaneous injection one and four hours post challenge; read-out: Deaths in Treated Chicks/Number Treated (converted)
Procedure, shortened: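 One-day-old chicks challenged subcutaneously with avian P. multocida (0.1 ml of 10^-3 dilution of 20-hour tryptose broth culture). Esters given at 30 mg/kg subcutaneously at 1 and 4 hours post challenge. Untreated infected controls, ten per group.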

Mycoplasma gallisepticum = assay: MIC, broth-dilution microtiter test (Table III); type: cell-based; set-up: unit not given here
Protocol: (§1) The MIC's in Table II were determined by standard agar-dilution assays. The MIC's in Table III were obtained using a conventional broth-dilution microtiter test.

Streptococcus sp. 80 = assay: MIC, broth-dilution microtiter test (Table III); type: cell-based; set-up: unit not given here
Protocol: as §1

Mycoplasma hyorhinis = assay: MIC, broth-dilution microtiter test (Table III); type: cell-based; set-up: unit not given here
Protocol: as §1

Mycoplasma synoviae = assay: MIC, broth-dilution microtiter test (Table III); type: cell-based; set-up: unit not given here
Protocol: as §1

[1] = test system: Pasteurella multocida 17E; assay: MIC, broth-dilution microtiter test (Table III); type: cell-based; set-up: unit not given here; conditions: bovine isolate
Protocol: as §1

Staphylococcus aureus = assay: MIC, broth-dilution microtiter test (Table III); type: cell-based; set-up: unit not given here
Protocol: as §1

[2] = test system: Pasteurella multocida 60A; assay: MIC, broth-dilution microtiter test (Table III); type: cell-based; set-up: unit not given here; conditions: avian isolate
Protocol: as §1

[3] = test system: Streptococcus pyogenes C203; assay: ED50 in mice with experimental infections (Table IV); type: in vivo; conditions: Streptococcus pyogenes, doses given 1 and 4 hours postinfection
Protocol: The OMT ester derivatives of this invention have shown in vivo antimicrobial activity against experimental bacterial infections caused by gram-positive bacteria. When two doses of test compound were administered to mice with experimental infections, the activity observed was measured as an ED50 value [effective dose in mg/kg to protect 50% of the test animals: see Warren Wick, et al., J. Bacteriol. 81, 233-235 (1961)].
^a mg/kg × 2; doses given 1 and 4 hours postinfection

[4] = test system: Staphylococcus epidermidis EPI1; assay: MIC, standard agar-dilution assay (Table II); type: cell-based; set-up: unit not given here
Protocol: as §1

[5] = test system: Streptococcus pneumoniae Park I; assay: MIC, standard agar-dilution assay (Table II); type: cell-based; set-up: unit not given here
Protocol: as §1

[6] = test system: Streptococcus Group D 9960; assay: MIC, standard agar-dilution assay (Table II); type: cell-based; set-up: unit not given here
Protocol: as §1

[7] = test system: Haemophilus influenzae Holt; assay: MIC, standard agar-dilution assay (Table II); type: cell-based; set-up: unit not given here; conditions: ampicillin-sensitive strain
Protocol: as §1

[8] = test system: Streptococcus pyogenes C203; assay: MIC, standard agar-dilution assay (Table II); type: cell-based; set-up: unit not given here
Protocol: as §1

[9] = test system: Streptococcus Group D X66; assay: MIC, standard agar-dilution assay (Table II); type: cell-based; set-up: unit not given here
Protocol: as §1

[10] = test system: Staphylococcus aureus V41; assay: MIC, standard agar-dilution assay (Table II); type: cell-based; set-up: unit not given here; conditions: Staphylococcus aureus V41, penicillin-resistant strain
Protocol: as §1

[11] = test system: Haemophilus influenzae R252; assay: MIC, standard agar-dilution assay (Table II); type: cell-based; set-up: unit not given here; conditions: Haemophilus influenzae R252, ampicillin-resistant strain
Protocol: as §1

[12] = test system: Staphylococcus aureus S13E; assay: MIC, standard agar-dilution assay (Table II); type: cell-based; set-up: unit not given here
Protocol: as §1

[13] = test system: Staphylococcus epidermidis EPI2; assay: MIC, standard agar-dilution assay (Table II); type: cell-based; set-up: unit not given here
Protocol: as §1

[14] = test system: Staphylococcus aureus X1.1; assay: MIC, standard agar-dilution assay (Table II); type: cell-based; set-up: unit not given here
Protocol: as §1

[15] = test system: Staphylococcus aureus X400; assay: MIC, standard agar-dilution assay (Table II); type: cell-based; set-up: unit not given here; conditions: Staphylococcus aureus X400, methicillin-resistant strain
Protocol: as §1

[16] = test system: Pasteurella haemolytica 41D; assay: MIC, broth-dilution microtiter test (Table III); type: cell-based; set-up: unit not given here
Protocol: as §1

[17] = test system: Pasteurella haemolytica 23C; assay: MIC, broth-dilution microtiter test (Table III); type: cell-based; set-up: unit not given here
Protocol: as §1

[18] = test system: Pasteurella multocida 22A; assay: MIC, broth-dilution microtiter test (Table III); type: cell-based; set-up: unit not given here
Protocol: as §1

[19] = test system: Pasteurella multocida 68C; assay: MIC, broth-dilution microtiter test (Table III); type: cell-based; set-up: unit not given here
Protocol: as §1

[20] = test system: Pasteurella haemolytica 22C; assay: MIC, broth-dilution microtiter test (Table III); type: cell-based; set-up: unit not given here
Protocol: as §1

[21] = test system: Pasteurella multocida 40G; assay: MIC, broth-dilution microtiter test (Table III); type: cell-based; set-up: unit not given here
Protocol: as §1

[22] = C203, oral, read-out: ED50, Oral
[23] = C203, sc, subcutaneous, read-out: ED50, Subcutaneous

Q: `CCC1OC(=O)CC(O)C(C)C(OC2OC(C)C(O)C(N(C)C)C2O)C(CC=O)CC(C)C(=O)C=CC(C)=CC1COC(=O)CC(C)C` (centres unmarked) [Compound 22] was tested. Which mortality at 30 mg/kg (Pasteurella multocida) did it give?
A: 10%

Q: And the “minimal inhibitory concentration (MIC)” value (Mycoplasma gallisepticum)?
A: < 0.05

Q: And the “minimal inhibitory concentration (MIC)” value (Streptococcus sp. 80)?
A: 0.097

Q: What about the “minimal inhibitory concentration (MIC)” value (Mycoplasma hyorhinis) of the same molecule?
A: 0.78

Q: And the “minimal inhibitory concentration (MIC)” value (Mycoplasma synoviae)?
A: < 0.05

Q: What about the “minimal inhibitory concentration (MIC)” value [1] of the same molecule?
A: 1.56

Q: What about the “minimal inhibitory concentration (MIC)” value (Staphylococcus aureus) of the same molecule?
A: 0.78

Q: And the “minimal inhibitory concentration (MIC)” value [2]?
A: 3.12

Q: What about the ED50 [3, 22] of the same molecule?
A: > 150 mg/kg

Q: What about the ED50 [3, 23] of the same molecule?
A: 7.5 mg/kg

Q: What about the “minimal inhibitory concentration (MIC)” value [4] of the same molecule?
A: 0.25

Q: What about the “minimal inhibitory concentration (MIC)” value [5] of the same molecule?
A: 0.125

Q: What about the “minimal inhibitory concentration (MIC)” value [6] of the same molecule?
A: 0.5

Q: What about the “minimal inhibitory concentration (MIC)” value [7] of the same molecule?
A: 2

Q: What about the “minimal inhibitory concentration (MIC)” value [8] of the same molecule?
A: 0.25

Q: And the “minimal inhibitory concentration (MIC)” value [9]?
A: 0.5

Q: What about the “minimal inhibitory concentration (MIC)” value [10] of the same molecule?
A: 0.25

Q: What about the “minimal inhibitory concentration (MIC)” value [11] of the same molecule?
A: 4

Q: What about the “minimal inhibitory concentration (MIC)” value [12] of the same molecule?
A: 0.25

Q: And the “minimal inhibitory concentration (MIC)” value [13]?
A: 0.25

Q: And the “minimal inhibitory concentration (MIC)” value [14]?
A: 0.25

Q: What about the “minimal inhibitory concentration (MIC)” value [15] of the same molecule?
A: 0.5

Q: For `CCC1OC(=O)CC(O)C(C)C(OC2OC(C)C(OC(C)=O)C(N(C)C)C2OC(C)=O)C(CC=O)CC(C)C(=O)C=CC(C)=CC1COC(=O)c1ccccc1` (centres unmarked) [Compound 6, 23-O-Benzoyl-2',4'-Di-O-acetyl-OMT], which mortality at 30 mg/kg (Pasteurella multocida) is on record?
A: 80%

Q: What about the “minimal inhibitory concentration (MIC)” value [16] of the same molecule?
A: 3.12

Q: And the “minimal inhibitory concentration (MIC)” value (Mycoplasma gallisepticum)?
A: < 0.05

Q: What about the “minimal inhibitory concentration (MIC)” value [17] of the same molecule?
A: 3.12

Q: What about the “minimal inhibitory concentration (MIC)” value (Streptococcus sp. 80) of the same molecule?
A: 0.195

Q: What about the “minimal inhibitory concentration (MIC)” value (Mycoplasma hyorhinis) of the same molecule?
A: 0.39

Q: And the “minimal inhibitory concentration (MIC)” value [18]?
A: 1.56

Q: What about the “minimal inhibitory concentration (MIC)” value (Mycoplasma synoviae) of the same molecule?
A: 0.39

Q: And the “minimal inhibitory concentration (MIC)” value [1]?
A: 1.56

Q: And the “minimal inhibitory concentration (MIC)” value (Staphylococcus aureus)?
A: 0.39

Q: And the “minimal inhibitory concentration (MIC)” value [19]?
A: 0.78

Q: And the “minimal inhibitory concentration (MIC)” value [2]?
A: 0.78

Q: What about the “minimal inhibitory concentration (MIC)” value [20] of the same molecule?
A: 6.25

Q: And the ED50 [3, 22]?
A: 146 mg/kg

Q: What about the ED50 [3, 23] of the same molecule?
A: > 30 mg/kg

Q: And the “minimal inhibitory concentration (MIC)” value [4]?
A: 0.25

Q: What about the “minimal inhibitory concentration (MIC)” value [5] of the same molecule?
A: 0.06

Q: What about the “minimal inhibitory concentration (MIC)” value [6] of the same molecule?
A: 0.25

Q: And the “minimal inhibitory concentration (MIC)” value [7]?
A: 2

Q: What about the “minimal inhibitory concentration (MIC)” value [8] of the same molecule?
A: 0.125

Q: And the “minimal inhibitory concentration (MIC)” value [9]?
A: 0.25

Q: And the “minimal inhibitory concentration (MIC)” value [10]?
A: 0.25

Q: And the “minimal inhibitory concentration (MIC)” value [11]?
A: 2

Q: What about the “minimal inhibitory concentration (MIC)” value [12] of the same molecule?
A: 0.25

Q: And the “minimal inhibitory concentration (MIC)” value [13]?
A: 0.5

Q: And the “minimal inhibitory concentration (MIC)” value [15]?
A: 0.25

Q: `CCC1OC(=O)CC(O)C(C)C(OC2OC(C)C(O)C(N(C)C)C2OC(C)=O)C(CC=O)CC(C)C(=O)C=CC(C)=CC1COC(=O)COc1ccccc1` (centres unmarked) [Compound 35] was tested. Which mortality at 30 mg/kg (Pasteurella multocida) did it give?
A: 10%

Q: And the “minimal inhibitory concentration (MIC)” value [16]?
A: 1.56

Q: And the “minimal inhibitory concentration (MIC)” value (Mycoplasma gallisepticum)?
A: < 0.05

Q: And the “minimal inhibitory concentration (MIC)” value [17]?
A: 3.12

Q: What about the “minimal inhibitory concentration (MIC)” value (Streptococcus sp. 80) of the same molecule?
A: 0.097

Q: And the “minimal inhibitory concentration (MIC)” value (Mycoplasma hyorhinis)?
A: 3.12

Q: What about the “minimal inhibitory concentration (MIC)” value [18] of the same molecule?
A: 6.25

Q: What about the “minimal inhibitory concentration (MIC)” value (Mycoplasma synoviae) of the same molecule?
A: 0.097

Q: What about the “minimal inhibitory concentration (MIC)” value [1] of the same molecule?
A: 1.56

Q: And the “minimal inhibitory concentration (MIC)” value (Staphylococcus aureus)?
A: 0.39

Q: And the “minimal inhibitory concentration (MIC)” value [19]?
A: 1.56

Q: And the “minimal inhibitory concentration (MIC)” value [2]?
A: 1.56

Q: What about the “minimal inhibitory concentration (MIC)” value [20] of the same molecule?
A: 3.12

Q: What about the “minimal inhibitory concentration (MIC)” value [21] of the same molecule?
A: 3.12

Q: And the “minimal inhibitory concentration (MIC)” value [4]?
A: 0.125

Q: What about the “minimal inhibitory concentration (MIC)” value [5] of the same molecule?
A: 0.03

Q: What about the “minimal inhibitory concentration (MIC)” value [6] of the same molecule?
A: 0.125

Q: And the “minimal inhibitory concentration (MIC)” value [7]?
A: 1

Q: And the “minimal inhibitory concentration (MIC)” value [8]?
A: 0.06

Q: What about the “minimal inhibitory concentration (MIC)” value [9] of the same molecule?
A: 0.125

Q: And the “minimal inhibitory concentration (MIC)” value [10]?
A: 0.125

Q: And the “minimal inhibitory concentration (MIC)” value [11]?
A: 1

Q: And the “minimal inhibitory concentration (MIC)” value [12]?
A: 0.125

Q: And the “minimal inhibitory concentration (MIC)” value [13]?
A: 0.125

Q: What about the “minimal inhibitory concentration (MIC)” value [14] of the same molecule?
A: 0.125

Q: And the “minimal inhibitory concentration (MIC)” value [15]?
A: 0.125
